Drawing on BindingDB's records for doi:10.1021/jm950874+ (National Institutes of Health, 1996), this text covers IC50 for 18 compounds.

Structures are written as SMILES. pIC50: −log10 of the molar value.

In the assay the target is T1, Dimer of Gag-Pol polyprotein [489-587] (Human immunodeficiency virus 1, UniProt P12497).
T1 construct: 489-587
The assay can be described thus: Protease Inhibition Assay. Particulars: pH 6.5; 37 °C. How it is done: Sensitivity of HIV-1 protease activity to protease inhibitors was determined by a peptide substrate cleavage assay. Protease products were analyzed on a reverse-phase high-pressure liquid chromatograph.

By pIC50 is commonly meant −log10 of the IC50, conventionally taken in molar units. Read a high pIC50 as a low IC50. In turn, `CC(C)CC(NC(=O)OCc1ccccc1)(C(=O)O)C(=O)O` [Cancer Chemotherapy National Service Center (CCNSC) compound 20143] gave a negative-log IC50 (pIC50) of 4.77. Compound `CCCC(=O)c1c(O)c(C)c(O)c(CC2C(=O)C(C(=O)CCC)C(=O)C(C)(C)C2=O)c1O` (stereo not drawn) [2-butanoyl-6-[(3-butanoyl-2,4,6-trihydroxy-5-methylphenyl)methyl]-3,5-dihydroxy-4,4-dimethylcyclohexa-2,5-dien-1-one] gave a pIC50 of 4.59. The compound `O=C1C(=O)c2ccccc2C(=O)C1=C(c1ccc(Cl)cc1Cl)c1c(O)c(O)c2ccccc2c1O` [2-[(2,4-dichlorophenyl)(3-hydroxy-1,4-dioxo-1,4-dihydronaphthalen-2-yl)methyl]-3-hydroxy-1,4-dihydronaphthalene-1,4-dione] gave a pIC50 of 4.62. Regarding `CCCCCCc1cc2c(cc1O)OC(=O)C(C(c1ccccc1)c1c(O)c3cc(CCCCCC)c(O)cc3oc1=O)C2O` (stereo not drawn), the pIC50 is 6.49. `O=c1oc2cccc(O)c2c(O)c1Cc1ccccc1`: the negative-log IC50 (pIC50) is 5.22.

The compound `O=c1oc2ccccc2c(O)c1C(c1ccc2c(c1)OCO2)c1c(O)c2ccccc2oc1=O` [Cancer Chemotherapy National Service Center (CCNSC) compound 373937] had a pIC50 of 4.52. With `C[C@]12CCC(=O)C=C1CC[C@@H]1[C@H]2[C@@H](O)C[C@@]2(C)[C@@H]1CC[C@]2(O)C(=O)COC(=O)CCC(=O)O` [Cancer Chemotherapy National Service Center (CCNSC) compound 7576], the negative-log IC50 (pIC50) was 4.57. The pIC50 values of the last two compounds are within 0.2 log units of each other. For the compound `CC(=O)NC(Cc1ccsc1)(C(=O)O)C(=O)O` [2-acetamido-2-(thiophen-3-ylmethyl)propanedioic acid], the pIC50 was 4.64.

The compound `O=C(Oc1ccccc1)N(CCO)C(c1ccccc1)C(O)c1ccccc1` (stereo not drawn) [phenyl N-(2-hydroxy-1,2-diphenylethyl)-N-(2-hydroxyethyl)carbamate] gave a pIC50 of 4.49. Consider `CC1(C)CC[C@]2(C(=O)O)CC[C@@]3(C)C(=CC[C@H]4[C@@]5(C)C[C@H](O)[C@H](O)[C@](C)(C(=O)O)[C@H]5CC[C@]43C)[C@@H]2C1` [(2S,3R,4R,4aS,6aR,6bR,8aS,12aS,14aS,14bR)-2,3-dihydroxy-4,6a,6b,11,11,14b-hexamethyl-1,2,3,4,4a,5,6,6a,6b,7,8,8a,9,10,11,12,12a,14,14a,14b-icosahydropicene-4,8a-dicarboxylic acid], for which the negative logarithm of the IC50 (pIC50) was 4.46. `O=C1Oc2ccccc2C(O)C1Sc1c(O)c2ccccc2oc1=O` (stereo not drawn) [Cancer Chemotherapy National Service Center (CCNSC) compound 41234] had a negative logarithm of the IC50 (pIC50) of 4.68. For `CC(=O)OC1CCC2(C)C(C)C(C)CCC2(O)C1O` (stereo not drawn) [Cancer Chemotherapy National Service Center (CCNSC) compound 112500], the negative logarithm of the IC50 (pIC50) was 4.80. Consider `O=C1C2=C(C(=O)c3ccccc31)C(O)(S(=O)(=O)O)C(O)(S(=O)(=O)O)C1N=CC=CC21` (stereo not drawn) [11,12-dihydroxy-5,10-dioxo-4a,5,10,11,12,12a-hexahydro-1-azatetraphene-11,12-disulfonic acid], for which the negative-log IC50 (pIC50) was 5.70. Against the preceding compound, the pIC50 is 0.90 log units higher. The same measure for `O=C1C(=O)c2ccccc2C(=O)C1=C(c1ccc(C(C2C(=O)C(=O)c3ccccc3C2=O)C2C(=O)C(=O)c3ccccc3C2=O)cc1)c1c(O)c(O)c2ccccc2c1O` (stereo not drawn) [2-({4-[bis(3-hydroxy-1,4-dioxo-1,4-dihydronaphthalen-2-yl)methyl]phenyl}(3-hydroxy-1,4-dioxo-1,4-dihydronaphthalen-2-yl)methyl)-3-hydroxy-1,4-dihydronaphthalene-1,4-dione]: 6.12; for `O=c1oc2ccccc2c(O)c1-c1ccccc1` [Cancer Chemotherapy National Service Center (CCNSC) compound 251152]: 4.38; for `O=c1oc2ccccc2c(O)c1C(c1ccc(C(c2c(O)c3ccccc3oc2=O)c2c(O)c3ccccc3oc2=O)cc1)c1c(O)c2ccccc2oc1=O` [3-({4-[bis(4-hydroxy-2-oxo-2H-chromen-3-yl)methyl]phenyl}(4-hydroxy-2-oxo-2H-chromen-3-yl)methyl)-4-hydroxy-2H-chromen-2-one]: 5.77. As for `O=c1oc2c(-c3ccccc3)cccc2c(O)c1-c1ccccc1` [Cancer Chemotherapy National Service Center (CCNSC) compound 251150], the negative-log IC50 (pIC50) is 4.89. Next, `CC(C)c1cccc(C(C)C)c1NC(=O)C(=O)CC(=O)CC(c1ccccc1)c1c(O)c2ccccc2oc1=O` (stereo not drawn) [N-[2,6-bis(propan-2-yl)phenyl]-6-(4-hydroxy-2-oxo-2H-chromen-3-yl)-2,4-dioxo-6-phenylhexanamide]: 4.51.
